Data: US11229636B2, “Substituted tetrahydroquinolinone compounds as ROR gamma modulators” (Aurigene Discovery Technologies Limited, priority 2015, dated 2022)

Each molecule was assayed against ROR gamma ligand binding domain (Homo sapiens (Human), UniProt P51449) (assay: ROR gamma luciferase reporter assay (GAL4-ROR gamma LBD, HEK293 cells)). Details: 48 hours treatment, read-out: RORγ luciferase Reporter assay: IC50 (nM) (in range).
Type: cell-based
Method: The Ligand Binding Domain (LBD) of ROR gamma was cloned into pFN26A (BIND) hRluc-neo Flexi vector (Promega) which expresses a fusion protein comprised of a DNA binding domain of the yeast GAL4 gene, a linker segment and ROR gamma ligand binding domain. For the reporter assay 0.02×10^6 HEK293 cells were seeded per well in a 96 well plate in complete media and incubated overnight in an incubator with 5% CO2 at 37° C. before transfection. Cells were then co-transfected with pFN26A hRluc-neo Flexi vector containing the LBD of ROR gamma and pGL4.35 [luc2P/9XGAL4 UAS/Hygro] Vector (Promega) in low serum media. Post transfection and recovery, cells were treated with the test compounds for 48 hours. The assay was terminated using the Bright-Glo Luciferase assay system from Promega and the Luminescence was measured using a luminescence reader. The luminescence values were used to calculate the potency of the compounds.

ROR gamma ligand binding domain, sequence (P51449 269-508): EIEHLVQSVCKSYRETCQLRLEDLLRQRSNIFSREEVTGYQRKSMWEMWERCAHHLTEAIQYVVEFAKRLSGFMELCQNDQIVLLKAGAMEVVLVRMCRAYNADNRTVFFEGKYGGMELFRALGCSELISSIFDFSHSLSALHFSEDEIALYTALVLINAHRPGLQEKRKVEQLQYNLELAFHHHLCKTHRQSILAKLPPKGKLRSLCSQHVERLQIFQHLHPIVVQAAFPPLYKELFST

| SMILES | IC50 |
| --- | --- |
| CCS(=O)(=O)c1ccc(CC(=O)Nc2ccc3c(n2)CCC(C)(c2cc(C)nc(C)n2)C3=O)nc1 (single isomer, unassigned) [compound 124, N-(6-(2,6-dimethylpyrimidin-4-yl)-6-methyl-5-oxo-5,6,7,8-tetrahydroquinolin-2-yl)-2-(5-(ethylsulfonyl)pyridin-2-yl)acetamide] | 100 to 500 nM |
| CCS(=O)(=O)c1ccc(CNC(=O)c2ccc3c(n2)CCC(C)(c2cc(C)nc(C)n2)C3=O)cc1 (single isomer, unassigned) [compound 125, 6-(2,6-dimethylpyrimidin-4-yl)-N-(4-(ethylsulfonyl)benzyl)-6-methyl-5-oxo-5,6,7,8-tetrahydroquinoline-2-carboxamide] | < 100 nM |
| CCS(=O)(=O)c1ccc(CNC(=O)c2ccc3c(n2)CCC(C)(c2cc(C)nc(C)n2)C3=O)cc1 (single isomer, unassigned) [compound 126, 6-(2,6-dimethylpyrimidin-4-yl)-N-(4-(ethylsulfonyl)benzyl)-6-methyl-5-oxo-5,6,7,8-tetrahydroquinoline-2-carboxamide] | > 500 nM |
| CCS(=O)(=O)c1ccc(CC(=O)Nc2ccc3c(n2)C(C)CC(C)(c2nccn4ccnc24)C3=O)cc1 (stereo not drawn) [Compound 48, 2-(4-(ethylsulfonyl)phenyl)-N-(6-(imidazo[1,2-a]pyrazin-8-yl)-6,8-dimethyl-5-oxo-5,6,7,8-tetrahydroquinolin-2-yl)acetamide] | > 500 nM |
| CCS(=O)(=O)c1ccc(CC(=O)Nc2cc(C)c3c(n2)CCC(C)(c2nccn4cc(C)nc24)C3=O)cc1 (stereo not drawn) [Compound 52, N-(4,6-dimethyl-6-(2-methylimidazo[1,2-a]pyrazin-8-yl)-5-oxo-5,6,7,8-tetrahydroquinolin-2-yl)-2-(4-(ethylsulfonyl)phenyl)acetamide] | < 100 nM |
| CCS(=O)(=O)c1ccc(CC(=O)Nc2cc(C)c3c(n2)CCC(C)(c2ccc(C(F)(F)F)nn2)C3=O)cc1 (stereo not drawn) [Compound 53, N-(4,6-dimethyl-5-oxo-6-(6-(trifluoromethyl)pyridazin-3-yl)-5,6,7,8-tetrahydroquinolin-2-yl)-2-(4-(ethylsulfonyl)phenyl)acetamide] | > 500 nM |
| CCS(=O)(=O)c1ccc(CC(=O)Nc2ccc3c(n2)CCC(C)(c2ccc(OC(C)C)nn2)C3=O)cc1 (stereo not drawn) [Compound 57, 2-(4-(ethylsulfonyl)phenyl)-N-(6-(6-isopropoxypyridazin-3-yl)-6-methyl-5-oxo-5,6,7,8-tetrahydroquinolin-2-yl)acetamide] | > 500 nM |
| CCS(=O)(=O)c1ccc(CC(=O)Nc2ccc3c(n2)CCC(C)(c2nccn4cc(C)nc24)C3=O)c(F)c1 (stereo not drawn) [Compound 58, 2-(4-(ethylsulfonyl)-2-fluorophenyl)-N-(6-methyl-6-(2-methylimidazo[1,2-a]pyrazin-8-yl)-5-oxo-5,6,7,8-tetrahydroquinolin-2-yl)acetamide] | 100 to 500 nM |
| CCS(=O)(=O)c1ccc(CC(=O)Nc2ccc3c(n2)CCC(C)(c2cc(C)nc(OC)n2)C3=O)cc1 (stereo not drawn) [Compound 64, 2-(4-(ethylsulfonyl)phenyl)-N-(6-(2-methoxy-6-methylpyrimidin-4-yl)-6-methyl-5-oxo-5,6,7,8-tetrahydroquinolin-2-yl)acetamide] | < 100 nM |
| CCS(=O)(=O)c1ccc(CC(=O)Nc2ccc3c(n2)CCC(C)(c2cc(OC)nc(C)n2)C3=O)cc1 (stereo not drawn) [Compound 65, 2-(4-(ethylsulfonyl)phenyl)-N-(6-(6-methoxy-2-methylpyrimidin-4-yl)-6-methyl-5-oxo-5,6,7,8-tetrahydroquinolin-2-yl)acetamide] | < 100 nM |
| CCS(=O)(=O)c1ccc(CC(=O)Nc2cc(C)c3c(n2)CCC(C)(c2ccc(=O)n(C)n2)C3=O)cc1 (stereo not drawn) [Compound 70, N-(4,6-dimethyl-6-(1-methyl-6-oxo-1,6-dihydropyridazin-3-yl)-5-oxo-5,6,7,8-tetrahydroquinolin-2-yl)-2-(4-(ethylsulfonyl)phenyl)acetamide] | > 500 nM |
| CCS(=O)(=O)c1ccc(CC(=O)Nc2cc(C)c3c(n2)CCC(C)(c2cc(OC)cnn2)C3=O)cc1 (stereo not drawn) [Compound 73, 2-(4-(ethylsulfonyl)phenyl)-N-(6-(5-methoxypyridazin-3-yl)-4,6-dimethyl-5-oxo-5,6,7,8-tetrahydroquinolin-2-yl)acetamide] | > 500 nM |
| CCS(=O)(=O)c1ccc(CC(=O)Nc2cc(C)c3c(n2)CCC(C)(c2ccc4nc(C)cn4n2)C3=O)cc1 (stereo not drawn) [Compound 75, N-(4,6-dimethyl-6-(2-methylimidazo[1,2-b]pyridazin-6-yl)-5-oxo-5,6,7,8-tetrahydroquinolin-2-yl)-2-(4-(ethylsulfonyl)phenyl)acetamide] | 100 to 500 nM |
| CCS(=O)(=O)c1ccc(CC(=O)Nc2cc(C)c3c(n2)CCC(C)(c2cc(C4CC4)c(OC)nn2)C3=O)cc1 (stereo not drawn) [Compound 76, N-(6-(5-cyclopropyl-6-methoxypyridazin-3-yl)-4,6-dimethyl-5-oxo-5,6,7,8-tetrahydroquinolin-2-yl)-2-(4-(ethylsulfonyl)phenyl)acetamide] | 100 to 500 nM |
| CCS(=O)(=O)c1ccc(CC(=O)Nc2cc(C)c3c(n2)CCC(C)(c2ccc4nccn4n2)C3=O)cc1 (stereo not drawn) [Compound 77, 2-(4-(ethylsulfonyl)phenyl)-N-(6-(imidazo[1,2-b]pyridazin-6-yl)-4,6-dimethyl-5-oxo-5,6,7,8-tetrahydroquinolin-2-yl)acetamide] | 100 to 500 nM |
| CCS(=O)(=O)c1ccc(CC(=O)Nc2ccc3c(n2)CC(C)C(C)(c2cc(C)nc(C)n2)C3=O)cc1 (stereo not drawn) [Compound 81, N-(6-(2,6-dimethylpyrimidin-4-yl)-6,7-dimethyl-5-oxo-5,6,7,8-tetrahydroquinolin-2-yl)-2-(4-(ethylsulfonyl)phenyl)acetamide] | < 100 nM |
| CCS(=O)(=O)c1ccc(CC(=O)Nc2ccc3c(n2)CC(C)C(c2cc(C)nc(C)n2)C3=O)cc1 (stereo not drawn) [Compound 82, N-(6-(2,6-dimethylpyrimidin-4-yl)-7-methyl-5-oxo-5,6,7,8-tetrahydroquinolin-2-yl)-2-(4-(ethylsulfonyl)phenyl)acetamide] | > 500 nM |

Now from value to molecule:

| IC50 | SMILES |
| --- | --- |
| < 100 nM | CCS(=O)(=O)c1ccc(CC(=O)Nc2ccc3c(n2)CCC(C)(c2nc(C)cn4cc(C)nc24)C3=O)cc1 (stereo not drawn) [Compound 51, N-(6-(2,6-dimethylimidazo[1,2-a]pyrazin-8-yl)-6-methyl-5-oxo-5,6,7,8-tetrahydroquinolin-2-yl)-2-(4-(ethylsulfonyl)phenyl)acetamide] |
| > 500 nM | Cc1cn2ccnc(C3(C)CCc4nc(NC(=O)Cc5ccc(S(C)(=O)=O)cc5)ccc4C3=O)c2n1 (stereo not drawn) [Compound 59, N-(6-methyl-6-(2-methylimidazo[1,2-a]pyrazin-8-yl)-5-oxo-5,6,7,8-tetrahydroquinolin-2-yl)-2-(4-(methylsulfonyl)phenyl)acetamide] |
| 100 to 500 nM | CCS(=O)(=O)c1ccc(CC(=O)Nc2ccc3c(n2)CCC(C)(c2cnc(C(C)C)cn2)C3=O)cc1 (stereo not drawn) [Compound 60, 2-(4-(ethylsulfonyl)phenyl)-N-(6-(5-isopropylpyrazin-2-yl)-6-methyl-5-oxo-5,6,7,8-tetrahydroquinolin-2-yl)acetamide] |
| < 100 nM | CCS(=O)(=O)c1ccc(CC(=O)Nc2ccc3c(n2)CCC(C)(c2nccn4c(F)c(C)nc24)C3=O)cc1 (stereo not drawn) [Compound 66, 2-(4-(ethylsulfonyl)phenyl)-N-(6-(3-fluoro-2-methylimidazo[1,2-a]pyrazin-8-yl)-6-methyl-5-oxo-5,6,7,8-tetrahydroquinolin-2-yl)acetamide] |
| > 500 nM | CCS(=O)(=O)c1ccc(CC(=O)Nc2ccc3c(n2)CCC(C)(c2cc(C(F)(F)F)nc(C)n2)C3=O)cc1 (stereo not drawn) [Compound 67, 2-(4-(ethylsulfonyl)phenyl)-N-(6-methyl-6-(2-methyl-6-(trifluoromethyl)-pyrimidin-4-yl)-5-oxo-5,6,7,8-tetrahydroquinolin-2-yl)acetamide] |
| 100 to 500 nM | CCS(=O)(=O)c1ccc(CC(=O)Nc2ccc3c(n2)CCC(C)(c2ncc(C)n4ccnc24)C3=O)cc1 (stereo not drawn) [Compound 68, 2-(4-(ethylsulfonyl)phenyl)-N-(6-methyl-6-(5-methylimidazo[1,2-a]pyrazin-8-yl)-5-oxo-5,6,7,8-tetrahydroquinolin-2-yl)acetamide] |
| 100 to 500 nM | CCS(=O)(=O)c1ccc(CC(=O)Nc2ccc3c(n2)CCC(C)(c2nccn4c(C5CC5)cnc24)C3=O)cc1 (stereo not drawn) [Compound 71, N-(6-(3-cyclopropylimidazo[1,2-a]pyrazin-8-yl)-6-methyl-5-oxo-5,6,7,8-tetrahydroquinolin-2-yl)-2-(4-(ethylsulfonyl)phenyl)acetamide] |
| < 100 nM | CCS(=O)(=O)c1ccc(CC(=O)Nc2ccc3c(n2)CCC(C)(c2nccn4cc(C(F)(F)F)nc24)C3=O)cc1 (stereo not drawn) [Compound 72, 2-(4-(ethylsulfonyl)phenyl)-N-(6-methyl-5-oxo-6-(2-(trifluoromethyl)-imidazo[1,2-a]pyrazin-8-yl)-5,6,7,8-tetrahydroquinolin-2-yl)acetamide] |
| < 100 nM | CCS(=O)(=O)c1ccc(CC(=O)Nc2ccc3c(n2)CCC(C)(c2nccn4c(C(F)(F)F)cnc24)C3=O)cc1 (stereo not drawn) [Compound 74, 2-(4-(ethylsulfonyl)phenyl)-N-(6-methyl-5-oxo-6-(3-(trifluoromethyl)-imidazo[1,2-a]pyrazin-8-yl)-5,6,7,8-tetrahydroquinolin-2-yl)acetamide] |
| 100 to 500 nM | CCS(=O)(=O)c1ccc(CC(=O)Nc2ccc3c(n2)CCC(C)(c2cc(C)nc(C(F)(F)F)n2)C3=O)cc1 (stereo not drawn) [Compound 78, 2-(4-(ethylsulfonyl)phenyl)-N-(6-methyl-6-(6-methyl-2-(trifluoromethyl)-pyrimidin-4-yl)-5-oxo-5,6,7,8-tetrahydroquinolin-2-yl)acetamide] |
